ChEMBL document CHEMBL4364305, “Medicinal leech antimicrobial peptides lacking toxicity represent a promising alternative strategy to combat antibiotic-resistant pathogens” (Eur J Med Chem, 2019)
Converted amounts (≈) assume the structure as drawn. The source made the active and inactive calls. No cut-off for these calls is given here. Residues, ends and D or L forms follow the SMILES beside them.

Tests used:
Escherichia coli [1] = test: Antibacterial activity against Escherichia coli MG1655 assessed as reduction in bacterial cell growth incubated for 24 hrs by microtiter dilution method; type: functional; settings: MG1655, 24 h
Chlamydia trachomatis = test: Antibacterial activity against Chlamydia trachomatis D/UW-3/Cx infected in mouse McCoy cells assessed as reduction in infected cells preincubated for 2 hrs and measured after 48 hrs by immunofluorescence method; type: functional
Bacillus subtilis [2] = test: Antibacterial activity against Bacillus subtilis 168 HT assessed as reduction in bacterial cell growth incubated for 24 hrs by microtiter dilution method; type: functional
Escherichia coli [3] = test: Antibacterial activity against Escherichia coli MG1655 assessed as reduction in bacterial cell structural integrity at 0.5 antibacterial MIC incubated for 8 or 24 hrs by scanning electron microscopy; type: functional, organism-based
Bacillus subtilis [4] = test: Induction of morphological changes in Bacillus subtilis 168 HT assessed as cellular debris formation at 0.5 antibacterial MIC incubated for 8 or 24 hrs by scanning electron microscopy; type: functional, organism-based
[5] = Cytotoxicity against mouse McCoy cells assessed as cell viability at 0.5 to 4 times of antibacterial MIC incubated for 48 hrs by calcein AM and ethidium homodimer-1 staining based epifluorescence microscopic method relative to control; settings: read-out: Activity
Lipid bilayer [6] = test: Disruption of large POPS unilamellar vesicle membrane assessed as release of carboxyfluorescein measured after 1 min by fluorescence based method
Lipid bilayer [7] = test: Disruption of large POPC unilamellar vesicle membrane assessed as release of carboxyfluorescein measured after 1 min by fluorescence based method
Bacillus subtilis [8] = test: Antibacterial activity against Bacillus subtilis 168 HT assessed as reduction in bacterial cell structural integrity at 0.5 antibacterial MIC incubated for 8 or 24 hrs by scanning electron microscopy; type: functional, organism-based
Lipid bilayer [9] = test: Disruption of large POPC:POPS unilamellar vesicle membrane assessed as release of carboxyfluorescein measured after 1 min by fluorescence based method
Lipid bilayer [10] = test: Disruption of large POPC:DOPG unilamellar vesicle membrane assessed as release of carboxyfluorescein measured after 1 min by fluorescence based method
[11] = Hemolytic activity in human Erythrocyte at 100 uM measured after 1 hr relative to control; type: ADME, cell-based; settings: erythrocytes, read-out: Activity
[12] = Cytotoxicity against mouse McCoy cells assessed as reduction in cell viability at 4 times of antibacterial MIC incubated for 48 hrs by calcein AM and ethidium homodimer-1 staining based epifluorescence microscopic method relative to control
[13] = Hemolytic activity in human Erythrocyte at 50 uM measured after 1 hr relative to control; type: ADME, cell-based; settings: erythrocytes, read-out: Activity
[14] = Hemolytic activity in human Erythrocyte at 6.25 uM measured after 1 hr relative to control; type: ADME, cell-based; settings: erythrocytes, read-out: Activity

SMILES: CC[C@H](C)[C@H](NC(=O)[C@H](CC(C)C)NC(=O)[C@@H](N)CS)C(=O)N[C@@H](CCSC)C(=O)N[C@@H](CCCCN)C(=O)N[C@H](C(=O)N[C@@H](CCCNC(=N)N)C(=O)N[C@@H](CCCNC(=N)N)C(=O)N[C@@H](CCCCN)C(=O)N[C@@H](CCCCN)C(=O)O)C(C)C (H-CLIMKVRRKK-OH)
- MIC (Escherichia coli [1]): 100 µM (≈ 128 µg/mL)
- MIC90 (Chlamydia trachomatis): 12.5 µM (≈ 15.9 µg/mL)
- MIC (Bacillus subtilis [2]): 12.6 µM (≈ 16.1 µg/mL)

SMILES: CC[C@H](C)[C@H](NC(=O)[C@H](CCCNC(=N)N)NC(=O)[C@H](CCSC)NC(=O)[C@@H](NC(=O)[C@H](CCCNC(=N)N)NC(=O)[C@@H](N)Cc1ccccc1)[C@@H](C)CC)C(=O)N[C@@H](CC(C)C)C(=O)N[C@@H](CCCNC(=N)N)C(=O)N[C@H](C(=O)N[C@@H](CC(C)C)C(=O)N[C@@H](CCCCN)C(=O)N[C@@H](CC(C)C)C(=O)O)C(C)C (H-FRIMRILRVLKL-OH)
- Activity (Escherichia coli [3]): Active
- Activity (Bacillus subtilis [4]): inactive
- MIC (Escherichia coli [1]): 10.3 µM (≈ 16 µg/mL)
- MIC90 (Chlamydia trachomatis): 3.1 µM (≈ 4.83 µg/mL)
- viability at 48 h [5]: 100%
- Activity (Lipid bilayer [6]): Dose-dependent effect
- Activity (Lipid bilayer [7]): inactive
- Activity (Bacillus subtilis [8]): Active
- MIC (Bacillus subtilis [2]): 10.3 µM (≈ 16 µg/mL)
- Activity (Lipid bilayer [9]): Dose-dependent effect
- Activity (Lipid bilayer [10]): Dose-dependent effect

SMILES: CC[C@H](C)[C@H](NC(=O)[C@H](CCCCN)NC(=O)[C@H](Cc1ccccc1)NC(=O)[C@H](CCCNC(=N)N)NC(=O)[C@H](CCCCN)NC(=O)[C@@H](NC(=O)[C@@H](NC(=O)[C@H](Cc1ccccc1)NC(=O)CN)[C@@H](C)CC)C(C)C)C(=O)N[C@@H](CC(C)C)C(=O)N[C@H](C(=O)O)C(C)C (H-GFIVKRFKILV-OH)
- hemolysis at 1 h, 100 µM [11]: 30%
- MIC (Escherichia coli [1]): > 97 µM
- MIC90 (Chlamydia trachomatis): > 100 µM
- Activity [12]: 100%
- MIC (Bacillus subtilis [2]): 97 µM (≈ 128 µg/mL)

SMILES: CC[C@H](C)[C@H](N)C(=O)N[C@@H](CCCCN)C(=O)N[C@H](C(=O)N[C@H](C(=O)N[C@@H](C)C(=O)N1CCC[C@H]1C(=O)N[C@@H](CCCCN)C(=O)N[C@@H](CCCCN)C(=O)N[C@H](C(=O)N[C@@H](CCCCN)C(=O)N[C@@H](CC(C)C)C(=O)O)[C@@H](C)CC)C(C)C)[C@@H](C)CC (H-IKIVAPKKIKL-OH)
- MIC (Escherichia coli [1]): > 102 µM
- MIC90 (Chlamydia trachomatis): > 100 µM
- MIC (Bacillus subtilis [2]): > 102 µM

SMILES: CC[C@H](C)[C@H](N)C(=O)N[C@@H](CO)C(=O)N[C@@H](CCCNC(=N)N)C(=O)N[C@@H](C)C(=O)N[C@@H](CS)C(=O)N[C@@H](CC(C)C)C(=O)N[C@H](C(=O)N[C@@H](CCSC)C(=O)N[C@@H](CCCCN)C(=O)N[C@H](C(=O)N[C@@H](CCCNC(=N)N)C(=O)N[C@@H](CCCNC(=N)N)C(=O)N[C@@H](CCCCN)C(=O)N[C@@H](CCCCN)C(=O)O)C(C)C)[C@@H](C)CC (H-ISRACLIMKVRRKK-OH)
- MIC (Escherichia coli [1]): 37.6 µM (≈ 64 µg/mL)
- MIC90 (Chlamydia trachomatis): 12.5 µM (≈ 21.3 µg/mL)
- MIC (Bacillus subtilis [2]): 9.4 µM (≈ 16 µg/mL)

SMILES: CC[C@H](C)[C@H](NC(=O)[C@@H](NC(=O)[C@H](CCCCN)NC(=O)[C@H](CCCCN)NC(=O)[C@H](Cc1ccccc1)NC(=O)[C@@H](N)CCCCN)C(C)C)C(=O)N[C@@H](Cc1c[nH]c2ccccc12)C(=O)N[C@@H](CCCCN)C(=O)N[C@@H](CO)C(=O)N[C@@H](Cc1ccccc1)C(=O)N[C@@H](CC(C)C)C(=O)O (H-KFKKVIWKSFL-OH)
- MIC (Escherichia coli [1]): 90 µM (≈ 128 µg/mL)
- MIC90 (Chlamydia trachomatis): 12.5 µM (≈ 17.8 µg/mL)
- viability at 48 h [5]: 100%
- hemolysis at 1 h, 50 µM [13]: 50%
- MIC (Bacillus subtilis [2]): 45 µM (≈ 64.1 µg/mL)

SMILES: CC[C@H](C)[C@H](NC(=O)[C@@H](N)CC(C)C)C(=O)N[C@H](C(=O)N[C@@H](CC(C)C)C(=O)N[C@H](C(=O)N[C@@H](CS)C(=O)N[C@@H](CCCNC(=N)N)C(=O)N[C@@H](CCCCN)C(=O)N[C@@H](CCCCN)C(=O)N[C@@H](CCCCN)C(=O)N[C@@H](CCCCN)C(=O)N1CCC[C@H]1C(=O)N[C@@H](Cc1ccccc1)C(=O)O)[C@@H](C)O)C(C)C (H-LIVLTCRKKKKPF-OH)
- MIC (Escherichia coli [1]): > 81 µM
- MIC90 (Chlamydia trachomatis): 12.5 µM (≈ 19.7 µg/mL)
- Activity [12]: 100%
- MIC (Bacillus subtilis [2]): 40.7 µM (≈ 64.1 µg/mL)

SMILES: CC[C@H](C)[C@H](NC(=O)CNC(=O)[C@@H](NC(=O)[C@H](CCCCN)NC(=O)[C@@H](NC(=O)CNC(=O)[C@H](CC(C)C)NC(=O)[C@H](Cc1c[nH]c2ccccc12)NC(=O)[C@H](CCCNC(=N)N)NC(=O)[C@@H](N)CC(C)C)[C@@H](C)O)C(C)C)C(=O)N[C@@H](CC(C)C)C(=O)N[C@@H](CCCCN)C(=O)O (H-LRWLGTKVGILK-OH)
- MIC (Escherichia coli [1]): > 92 µM
- MIC90 (Chlamydia trachomatis): > 100 µM
- MIC (Bacillus subtilis [2]): > 92 µM

SMILES: CC[C@H](C)[C@H](NC(=O)[C@@H](NC(=O)[C@H](CCCNC(=N)N)NC(=O)[C@@H](NC(=O)[C@H](CCCNC(=N)N)NC(=O)[C@H](CCCNC(=N)N)NC(=O)[C@@H](NC(=O)[C@H](CCCNC(=N)N)NC(=O)[C@@H](NC(=O)[C@H](CC(C)C)NC(=O)[C@@H](NC(=O)[C@@H]1CCCN1C(=O)[C@@H](N)CCCNC(=N)N)[C@@H](C)CC)[C@@H](C)CC)C(C)C)[C@@H](C)CC)C(C)C)C(=O)O (H-RPILIRVRRIRVI-OH)
- MIC (Escherichia coli [1]): 77.1 µM (≈ 128 µg/mL)
- MIC90 (Chlamydia trachomatis): > 100 µM
- Activity [12]: Toxic
- MIC (Bacillus subtilis [2]): 9.7 µM (≈ 16.1 µg/mL)

SMILES: CC(C)C[C@H](NC(=O)[C@H](Cc1ccccc1)NC(=O)[C@H](CS)NC(=O)[C@@H](NC(=O)[C@H](CC(C)C)NC(=O)[C@H](CCCNC(=N)N)NC(=O)[C@H](Cc1c[nH]c2ccccc12)NC(=O)[C@@H](N)CCCNC(=N)N)C(C)C)C(=O)N[C@@H](CS)C(=O)N[C@@H](CCCNC(=N)N)C(=O)N[C@@H](CCCNC(=N)N)C(=O)N[C@@H](CCCCN)C(=O)N[C@@H](CCCCN)C(=O)N[C@H](C(=O)O)C(C)C (H-RWRLVCFLCRRKKV-OH)
- Activity (Escherichia coli [3]): Active
- hemolysis at 1 h, 100 µM [11]: 30%
- MIC (Escherichia coli [1]): 17.2 µM (≈ 32.1 µg/mL)
- MIC90 (Chlamydia trachomatis): 6.3 µM (≈ 11.7 µg/mL)
- viability at 48 h [5]: 100%
- Activity (Lipid bilayer [6]): Dose-dependent effect
- Activity (Lipid bilayer [7]): inactive
- Activity (Bacillus subtilis [8]): Active
- MIC (Bacillus subtilis [2]): 8.6 µM (≈ 16 µg/mL)
- Activity (Lipid bilayer [9]): Dose-dependent effect
- Activity (Lipid bilayer [10]): Dose-dependent effect

SMILES: CC[C@H](C)[C@H](NC(=O)[C@H](CCCCN)NC(=O)[C@@H](N)Cc1c[nH]c2ccccc12)C(=O)N[C@@H](Cc1ccccc1)C(=O)N[C@@H](CCCCN)C(=O)N[C@@H](CC(C)C)C(=O)N[C@@H](CCCCN)C(=O)N[C@@H](CC(C)C)C(=O)N[C@@H](CCCNC(=N)N)C(=O)N[C@@H](CCSC)C(=O)N[C@@H](CC(C)C)C(=O)N[C@@H](Cc1c[nH]c2ccccc12)C(=O)O (H-WKIFKLKLRMLW-OH)
- MIC (Escherichia coli [1]): 77 µM (≈ 128 µg/mL)
- MIC90 (Chlamydia trachomatis): 50 µM (≈ 83.1 µg/mL)
- hemolysis at 1 h, 6.25 µM [14]: 50%
- MIC (Bacillus subtilis [2]): 38.5 µM (≈ 64 µg/mL)

SMILES: CC[C@H](C)[C@H](NC(=O)CNC(=O)[C@H](C)NC(=O)[C@H](Cc1cnc[nH]1)NC(=O)[C@@H](NC(=O)[C@H](CCCCN)NC(=O)[C@H](Cc1ccc(O)cc1)NC(=O)[C@@H]1CCCN1C(=O)[C@@H](NC(=O)[C@H](CC(C)C)NC(=O)[C@H](CCCCN)NC(=O)[C@H](CCCCN)NC(=O)[C@@H](N)Cc1c[nH]c2ccccc12)C(C)C)[C@@H](C)CC)C(=O)O (H-WKKLVPYKIHAGI-OH)
- MIC (Escherichia coli [1]): > 82 µM
- MIC90 (Chlamydia trachomatis): > 100 µM
- MIC (Bacillus subtilis [2]): > 82 µM

SMILES: CC[C@H](C)[C@H](NC(=O)CN)C(=O)NCC(=O)N[C@@H](C)C(=O)N[C@H](C(=O)N[C@@H](CC(C)C)C(=O)N[C@@H](CCCCN)C(=O)N[C@H](C(=O)N[C@@H](CC(C)C)C(=O)N[C@H](C(=O)N[C@H](C(=O)NCC(=O)N[C@@H](CC(C)C)C(=O)N1CCC[C@H]1C(=O)N[C@@H](C)C(=O)N[C@@H](CC(C)C)C(=O)N[C@H](C(=O)N[C@@H](CO)C(=O)N[C@@H](Cc1c[nH]c2ccccc12)C(=O)N[C@H](C(=O)N[C@@H](CCCCN)C(=O)N[C@@H](CCCNC(=N)N)C(=O)N[C@@H](CCCCN)C(=O)N[C@@H](CCCNC(=N)N)C(=O)N[C@@H](CCC(N)=O)C(=O)N[C@@H](CCC(N)=O)C(N)=O)[C@@H](C)CC)[C@@H](C)CC)[C@@H](C)O)[C@@H](C)O)C(C)C)C(C)C [MELITTIN]
- MIC90 (Chlamydia trachomatis): 2 µM (≈ 5.69 µg/mL)
